The values below are quoted from earlier work in patent US20090048317A1, “Formulations of candesartan” (priority 2007, published 2009).

The conditions of the data set: in water and in methanol.

SMILES strings stand for the structures.

As for `CCOc1nc2cccc(C(=O)OC(C)OC(=O)OC3CCCCC3)c2n1Cc1ccc(-c2ccccc2-c2nnn[nH]2)cc1` (racemic) [Candesartan cilexetil, (±)-1-[[(cyclohexyloxy)carbonyl]oxy]ethyl-2-ethoxy-1-[[′-(1H-tetrazol-5-yl)[1,1-biphenyl]-4-yl]methyl]-1H-benzimidazole-7-carboxylate], the solubility entry is “sparingly soluble”.
